Results as given in patent US20210246128A1, “BICYCLE TOPOISOMERASE I INHIBITING COMPOUNDS, PROCESS FOR PREPARATION AND USE THEREOF” (Council of Scientific & Industrial Research, priority 2018, published 2021).
Values after ≈ are worked out from the molar mass of the structure shown. Read-outs that look alike come from different tables or passages of the source.

Assays:
[1] = Solubility assay (pH 7.4 pION buffer, UV); assay type: physicochemical; conditions: pH 7.4 pION buffer, aqueous buffer, kinetic from dmso stock; pH 7.4 buffer, 18 hours incubation; read-out: Avg. Solubility (μg/mL) at pH 7.4
Outline: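 Compound from 20 mM DMSO stock diluted to 200 μM in pH 7.4 pION buffer (<1.0% DMSO) and incubated 18 h sealed. Samples vacuum-filtered, filtrate mixed 1:1 with acetonitrile and UV absorbance read at 240 nm against an acetonitrile/buffer reference of the stock.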

[2] = Caco-2 permeability (21 day culture of Caco-2 cell monolayer); assay type: in vitro ADME; conditions: human; for recovery at 120 min, 10 μM: Caco-2, pH 7.4, Caco-2
Outline: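 Caco-2 monolayers grown 21 days, used when TEER >230 ohm·cm2; compound at 10 μM final in HBSS pH 7.4 dosed apical or basal, receiver HBSS with 2% BSA, sampled at 120 min at 37° C. Bidirectional transport quantified by LC-MS/MS against single-point calibration.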

[3] = molecular target: T1, endogenous TopI from the whole cell extracts of human breast adenocarcinoma (MCF7) cell (Homo sapiens, UniProt P11387); assay: Plasmid DNA relaxation assay with MCF7 cell lysates (ex vivo); assay type: biochemical; conditions: MCF7 cell lysates as source of TopI
T1 construct: TopI enzyme in the extract is conserved in its native structure among a plethora of other cellular proteins; endogenous in cells; host or cells: MCF7 whole cell extract
T1 sequence (P11387 1-765): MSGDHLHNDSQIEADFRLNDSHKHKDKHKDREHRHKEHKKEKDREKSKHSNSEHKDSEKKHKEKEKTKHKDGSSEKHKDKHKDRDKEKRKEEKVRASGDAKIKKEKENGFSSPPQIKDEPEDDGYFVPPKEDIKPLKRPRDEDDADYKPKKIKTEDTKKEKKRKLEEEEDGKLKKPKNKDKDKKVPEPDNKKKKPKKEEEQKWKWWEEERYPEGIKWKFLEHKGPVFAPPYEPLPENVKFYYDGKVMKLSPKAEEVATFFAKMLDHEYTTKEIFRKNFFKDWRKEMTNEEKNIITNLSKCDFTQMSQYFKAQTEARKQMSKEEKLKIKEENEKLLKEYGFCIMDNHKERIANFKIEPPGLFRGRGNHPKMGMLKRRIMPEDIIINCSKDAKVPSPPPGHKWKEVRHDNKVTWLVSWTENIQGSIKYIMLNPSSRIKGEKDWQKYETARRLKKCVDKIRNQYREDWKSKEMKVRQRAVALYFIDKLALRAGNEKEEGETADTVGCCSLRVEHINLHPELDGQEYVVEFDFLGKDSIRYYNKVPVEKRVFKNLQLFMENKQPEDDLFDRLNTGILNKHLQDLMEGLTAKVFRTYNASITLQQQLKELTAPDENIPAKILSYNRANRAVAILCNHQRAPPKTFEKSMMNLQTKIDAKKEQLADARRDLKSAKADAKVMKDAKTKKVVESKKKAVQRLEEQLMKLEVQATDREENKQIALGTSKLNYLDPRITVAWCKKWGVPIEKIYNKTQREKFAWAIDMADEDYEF
Experimental: Human ToPI Inhibition in Plasmid DNA Relaxation Assays with Recombinant TopI (In Vitro) or MCF7 Cell Lysates (Ex Vivo)
Relaxation of supercoiled pBSSK(^+) DNA with recombinant human TopI (HTopI) at a molar ratio of 3:1 at 37° C. for 30 minutes was performed
cellular extracts were utilized as a source of TopI (ex vivo) in plasmid DNA relaxation assays. TopI enzyme in the extract is conserved in its native structure among a plethora of other cellular proteins.

[4] = Lipophilicity assay (octanol/buffer Log D); conditions: n-octanol/sodium phosphate buffer, pH 7.4
Experimental: 1.56 g NaH2PO4.2H2O was dissolved in 0.5 L water in a 1 L beaker. After adjusting pH to 7.4 using NaOH solution, the volume was made up to 1 L. Equal volumes of sodium phosphate buffer (10 mM, pH 7.4) and n-octanol were added to a separation funnel and mixed thoroughly by shaking and inverting the funnel several times. The two layers were allowed to separate for 2 days and then dispensed in two separate glass bottles. 10 mM stock solution was prepared in 100% DMSO and stored at 4° C. 500 μL of organic phase (1-octanol) was added to each well of a 2 mL deep well plate, followed by 500 μL of buffer and 15 μL of test substance was added. The plate was vortexed for 1 hr on a plate shaker at 1200 rpm. After incubation, the samples were allowed to equilibrate for 20 min and then centrifuged at 4000 rpm for 30 min for complete phase separation and analysed by LC-UV.
Log D=Log(area of octanol/area of buffer)
Mean, SD and % CV for each set of triplicates were calculated

Nc1ccc(-c2ccc3ncc(-c4nnco4)c(NCCCn4ccnc4)c3c2)cn1 [Compound 24, N-(3-(1H-imidazol-1-yl)propyl)-6-(6-aminopyridin-3-yl)-3-(1,3,4-oxadiazol-2-yl)quinolin-4-amine]
solubility at 18 h [1]: 27.2 µg/mL (≈ 66 µM) | efflux ratio at 120 min, 10 μM ([2]; Caco-2, pH 7.4): 4.54 | recovery at 120 min, 10 μM ([2]; read-out: A to B % Recovery): 77.3% | recovery at 120 min, 10 μM ([2]; read-out: B to A % Recovery): 77.7% | Papp A→B at 120 min, 10 μM ([2]; pH 7.4, Caco-2, 10 μM, 120 min, read-out: Papp Apical to Basal): 6.47 ×10⁻⁶ cm/s | Papp B→A at 120 min, 10 μM ([2]; pH 7.4, Caco-2, 10 μM, 120 min, read-out: Papp Basal to Apical): 27.4 ×10⁻⁶ cm/s | IC50 [3]: 1830 nM | logD [4]: 3.51
